The values that follow come from ChEMBL document CHEMBL4715770, “Inhibition of Low Molecular Weight Protein Tyrosine Phosphatase by an Induced-Fit Mechanism” (J Med Chem, 2016).

Assay [1] addresses T1, Dual specificity protein phosphatase 6 (Homo sapiens, UniProt Q16828).
T1 sequence (Q16828 whole entry): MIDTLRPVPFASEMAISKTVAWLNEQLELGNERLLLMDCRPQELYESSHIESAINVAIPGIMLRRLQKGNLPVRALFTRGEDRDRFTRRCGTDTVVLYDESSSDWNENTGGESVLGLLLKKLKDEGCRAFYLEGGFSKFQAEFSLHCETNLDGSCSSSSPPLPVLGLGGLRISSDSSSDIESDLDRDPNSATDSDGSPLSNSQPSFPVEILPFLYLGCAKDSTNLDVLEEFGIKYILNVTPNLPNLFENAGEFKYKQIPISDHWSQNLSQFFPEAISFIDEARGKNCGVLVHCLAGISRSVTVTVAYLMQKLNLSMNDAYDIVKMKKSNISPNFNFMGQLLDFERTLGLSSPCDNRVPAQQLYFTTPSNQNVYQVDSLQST
Nature of the assay: Inhibition of His-tagged MKP3 (unknown origin) expressed in Escherichia coli BL21 cells using para-nitrophenyl phosphate as substrate incubated for 5 to 10 mins by microplate reader based spectrophotometric analysis.

The target in assay [2] is Receptor-type tyrosine-protein phosphatase epsilon (Homo sapiens, UniProt P23469). In words: Inhibition of His-tagged PTPepsilon (unknown origin) expressed in Escherichia coli BL21 cells using para-nitrophenyl phosphate as substrate incubated for 5 to 10 mins by microplate reader based spectrophotometric analysis.
Receptor-type tyrosine-protein phosphatase epsilon, sequence (P23469 whole entry): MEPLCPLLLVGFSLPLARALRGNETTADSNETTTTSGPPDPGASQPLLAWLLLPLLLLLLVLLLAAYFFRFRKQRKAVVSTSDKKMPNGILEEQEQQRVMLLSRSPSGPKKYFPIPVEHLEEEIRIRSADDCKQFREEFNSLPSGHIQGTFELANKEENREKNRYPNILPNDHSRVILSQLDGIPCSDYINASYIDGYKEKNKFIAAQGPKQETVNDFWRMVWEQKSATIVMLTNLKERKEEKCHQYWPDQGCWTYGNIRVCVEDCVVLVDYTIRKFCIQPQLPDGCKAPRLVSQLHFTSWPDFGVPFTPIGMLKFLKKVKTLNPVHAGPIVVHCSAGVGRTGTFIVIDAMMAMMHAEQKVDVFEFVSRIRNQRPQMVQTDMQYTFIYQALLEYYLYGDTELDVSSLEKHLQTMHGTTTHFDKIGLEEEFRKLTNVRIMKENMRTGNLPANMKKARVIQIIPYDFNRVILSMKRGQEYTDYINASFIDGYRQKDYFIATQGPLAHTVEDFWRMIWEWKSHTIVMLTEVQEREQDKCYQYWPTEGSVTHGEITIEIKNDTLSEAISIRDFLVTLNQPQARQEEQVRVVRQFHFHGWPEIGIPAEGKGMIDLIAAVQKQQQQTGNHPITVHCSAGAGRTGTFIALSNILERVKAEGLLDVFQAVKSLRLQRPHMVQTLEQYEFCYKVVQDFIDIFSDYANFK
The target of assay [3] is Receptor-type tyrosine-protein phosphatase S (Homo sapiens, UniProt Q13332). In words: Inhibition of His-tagged PTPsigma (unknown origin) expressed in Escherichia coli BL21 cells using para-nitrophenyl phosphate as substrate incubated for 5 to 10 mins by microplate reader based spectrophotometric analysis.
Receptor-type tyrosine-protein phosphatase S, sequence (Q13332 whole entry): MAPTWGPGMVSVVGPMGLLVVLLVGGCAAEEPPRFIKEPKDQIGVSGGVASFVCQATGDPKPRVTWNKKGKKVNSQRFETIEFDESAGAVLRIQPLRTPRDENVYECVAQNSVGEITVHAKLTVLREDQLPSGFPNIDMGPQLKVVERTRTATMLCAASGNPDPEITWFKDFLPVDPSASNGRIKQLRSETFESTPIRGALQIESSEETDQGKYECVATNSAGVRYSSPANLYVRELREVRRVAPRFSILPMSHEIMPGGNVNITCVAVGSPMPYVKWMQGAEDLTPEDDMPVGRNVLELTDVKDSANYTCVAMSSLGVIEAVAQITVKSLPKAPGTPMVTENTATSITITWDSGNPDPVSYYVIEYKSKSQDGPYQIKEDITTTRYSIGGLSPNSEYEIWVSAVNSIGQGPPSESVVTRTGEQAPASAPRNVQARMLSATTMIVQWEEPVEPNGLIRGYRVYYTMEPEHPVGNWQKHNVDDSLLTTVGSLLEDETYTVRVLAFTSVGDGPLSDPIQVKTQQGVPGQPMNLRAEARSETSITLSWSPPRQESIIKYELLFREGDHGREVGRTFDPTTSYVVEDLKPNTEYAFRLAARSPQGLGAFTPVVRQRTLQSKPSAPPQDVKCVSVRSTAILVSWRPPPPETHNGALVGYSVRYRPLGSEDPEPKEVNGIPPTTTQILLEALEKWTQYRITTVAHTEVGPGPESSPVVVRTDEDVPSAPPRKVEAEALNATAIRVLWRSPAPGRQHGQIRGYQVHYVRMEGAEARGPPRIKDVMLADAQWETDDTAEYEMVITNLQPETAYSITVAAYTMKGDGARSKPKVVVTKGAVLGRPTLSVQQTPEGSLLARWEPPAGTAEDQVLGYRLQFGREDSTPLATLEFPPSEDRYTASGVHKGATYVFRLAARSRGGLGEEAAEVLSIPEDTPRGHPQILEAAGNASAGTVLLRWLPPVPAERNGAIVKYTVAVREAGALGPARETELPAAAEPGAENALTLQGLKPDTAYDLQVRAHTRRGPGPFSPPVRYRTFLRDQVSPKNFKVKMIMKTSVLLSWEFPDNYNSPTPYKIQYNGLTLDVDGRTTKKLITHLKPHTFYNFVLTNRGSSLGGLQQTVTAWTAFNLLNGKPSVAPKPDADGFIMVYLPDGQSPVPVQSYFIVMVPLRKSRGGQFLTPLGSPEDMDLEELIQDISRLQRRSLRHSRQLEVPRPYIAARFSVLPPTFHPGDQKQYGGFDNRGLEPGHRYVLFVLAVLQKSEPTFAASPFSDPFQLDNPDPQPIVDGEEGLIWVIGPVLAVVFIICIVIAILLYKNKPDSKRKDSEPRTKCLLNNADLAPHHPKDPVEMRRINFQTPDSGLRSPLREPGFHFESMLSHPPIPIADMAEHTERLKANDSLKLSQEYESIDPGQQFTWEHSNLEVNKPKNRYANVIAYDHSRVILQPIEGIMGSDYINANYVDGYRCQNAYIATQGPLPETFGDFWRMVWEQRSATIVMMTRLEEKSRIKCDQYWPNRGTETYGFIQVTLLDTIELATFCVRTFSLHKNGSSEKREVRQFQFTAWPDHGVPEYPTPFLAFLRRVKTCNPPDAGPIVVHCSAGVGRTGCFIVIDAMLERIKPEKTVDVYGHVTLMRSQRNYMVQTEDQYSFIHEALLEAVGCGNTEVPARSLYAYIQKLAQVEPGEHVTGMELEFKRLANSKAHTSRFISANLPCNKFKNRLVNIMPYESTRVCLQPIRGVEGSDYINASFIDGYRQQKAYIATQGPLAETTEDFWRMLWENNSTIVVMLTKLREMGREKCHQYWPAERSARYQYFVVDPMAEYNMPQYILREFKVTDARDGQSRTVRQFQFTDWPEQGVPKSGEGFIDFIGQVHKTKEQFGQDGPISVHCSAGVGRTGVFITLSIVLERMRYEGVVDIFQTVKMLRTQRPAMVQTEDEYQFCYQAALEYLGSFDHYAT
The target in assay [4] is Receptor-type tyrosine-protein phosphatase F (Homo sapiens, UniProt P10586). In words: Inhibition of His-tagged LAR (unknown origin) expressed in Escherichia coli BL21 cells using para-nitrophenyl phosphate as substrate incubated for 5 to 10 mins by microplate reader based spectrophotometric analysis.
Receptor-type tyrosine-protein phosphatase F, sequence (P10586 whole entry): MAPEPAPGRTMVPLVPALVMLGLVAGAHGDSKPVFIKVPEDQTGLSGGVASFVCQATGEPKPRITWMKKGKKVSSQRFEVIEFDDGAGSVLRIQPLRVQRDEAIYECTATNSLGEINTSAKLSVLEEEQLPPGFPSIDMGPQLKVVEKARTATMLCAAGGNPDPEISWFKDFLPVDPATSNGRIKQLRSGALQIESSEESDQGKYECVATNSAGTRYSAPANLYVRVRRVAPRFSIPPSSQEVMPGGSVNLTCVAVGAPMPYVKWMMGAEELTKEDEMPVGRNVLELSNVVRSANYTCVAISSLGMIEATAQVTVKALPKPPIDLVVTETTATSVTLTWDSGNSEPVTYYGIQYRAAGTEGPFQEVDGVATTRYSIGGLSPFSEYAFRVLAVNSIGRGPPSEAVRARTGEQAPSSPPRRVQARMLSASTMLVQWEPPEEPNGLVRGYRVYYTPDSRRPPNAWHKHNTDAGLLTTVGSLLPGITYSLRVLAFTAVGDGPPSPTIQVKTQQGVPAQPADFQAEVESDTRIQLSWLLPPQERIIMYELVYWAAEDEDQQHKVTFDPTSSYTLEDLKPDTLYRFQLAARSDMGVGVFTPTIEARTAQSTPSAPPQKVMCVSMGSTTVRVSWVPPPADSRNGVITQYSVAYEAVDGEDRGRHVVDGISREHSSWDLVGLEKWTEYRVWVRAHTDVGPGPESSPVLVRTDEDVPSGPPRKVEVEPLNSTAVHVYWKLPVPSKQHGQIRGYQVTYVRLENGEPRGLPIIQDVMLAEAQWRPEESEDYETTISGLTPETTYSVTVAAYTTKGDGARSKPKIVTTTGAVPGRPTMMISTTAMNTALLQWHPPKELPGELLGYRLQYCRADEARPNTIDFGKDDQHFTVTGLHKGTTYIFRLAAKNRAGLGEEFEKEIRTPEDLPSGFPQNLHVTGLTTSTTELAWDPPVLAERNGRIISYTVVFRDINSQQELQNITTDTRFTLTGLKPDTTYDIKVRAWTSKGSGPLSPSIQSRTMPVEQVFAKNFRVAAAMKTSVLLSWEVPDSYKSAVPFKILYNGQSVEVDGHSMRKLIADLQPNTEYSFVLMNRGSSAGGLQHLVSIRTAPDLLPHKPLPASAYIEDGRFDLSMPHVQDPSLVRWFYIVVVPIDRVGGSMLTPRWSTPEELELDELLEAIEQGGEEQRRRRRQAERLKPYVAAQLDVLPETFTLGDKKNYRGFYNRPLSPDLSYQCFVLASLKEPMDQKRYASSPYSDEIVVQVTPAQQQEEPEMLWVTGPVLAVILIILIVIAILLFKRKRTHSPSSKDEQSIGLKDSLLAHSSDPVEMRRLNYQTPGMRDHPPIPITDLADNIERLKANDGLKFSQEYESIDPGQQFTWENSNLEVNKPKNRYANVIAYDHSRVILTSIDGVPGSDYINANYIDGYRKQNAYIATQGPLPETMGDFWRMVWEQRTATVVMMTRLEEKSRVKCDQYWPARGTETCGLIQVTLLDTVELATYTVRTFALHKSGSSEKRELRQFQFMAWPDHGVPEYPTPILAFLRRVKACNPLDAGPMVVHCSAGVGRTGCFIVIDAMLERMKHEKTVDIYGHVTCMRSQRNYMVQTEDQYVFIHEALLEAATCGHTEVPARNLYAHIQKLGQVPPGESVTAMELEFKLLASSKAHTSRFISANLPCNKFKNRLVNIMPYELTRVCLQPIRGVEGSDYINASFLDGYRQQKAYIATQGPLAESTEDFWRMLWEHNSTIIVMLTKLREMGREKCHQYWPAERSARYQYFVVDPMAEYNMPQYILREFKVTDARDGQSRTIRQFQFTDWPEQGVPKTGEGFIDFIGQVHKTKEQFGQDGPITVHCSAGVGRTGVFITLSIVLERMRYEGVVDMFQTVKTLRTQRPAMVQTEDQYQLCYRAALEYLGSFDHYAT
Assay [5] has as its target T2, Tyrosine-protein phosphatase non-receptor type 1 (Homo sapiens, UniProt P18031).
T2 sequence (P18031 whole entry): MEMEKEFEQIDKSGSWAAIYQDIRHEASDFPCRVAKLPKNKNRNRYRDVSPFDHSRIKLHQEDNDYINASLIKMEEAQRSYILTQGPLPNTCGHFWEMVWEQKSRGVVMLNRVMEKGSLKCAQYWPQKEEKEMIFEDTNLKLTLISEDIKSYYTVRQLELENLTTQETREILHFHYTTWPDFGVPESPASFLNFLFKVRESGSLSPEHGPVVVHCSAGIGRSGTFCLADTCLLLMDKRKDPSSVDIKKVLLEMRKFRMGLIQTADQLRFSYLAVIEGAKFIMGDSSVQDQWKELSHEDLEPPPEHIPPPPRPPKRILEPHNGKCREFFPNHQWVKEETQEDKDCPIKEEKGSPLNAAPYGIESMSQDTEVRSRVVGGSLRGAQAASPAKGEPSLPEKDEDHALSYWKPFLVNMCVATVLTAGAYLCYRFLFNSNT
Nature of the assay: Inhibition of His-tagged PTP1B (unknown origin) expressed in Escherichia coli BL21 cells using para-nitrophenyl phosphate as substrate incubated for 5 to 10 mins by microplate reader based spectrophotometric analysis.

The target of assay [6] is Dual specificity protein phosphatase 3 (Homo sapiens, UniProt P51452). In words: Inhibition of His-tagged VHR (unknown origin) expressed in Escherichia coli BL21 cells using para-nitrophenyl phosphate as substrate incubated for 5 to 10 mins by microplate reader based spectrophotometric analysis.
Dual specificity protein phosphatase 3, sequence (P51452 whole entry): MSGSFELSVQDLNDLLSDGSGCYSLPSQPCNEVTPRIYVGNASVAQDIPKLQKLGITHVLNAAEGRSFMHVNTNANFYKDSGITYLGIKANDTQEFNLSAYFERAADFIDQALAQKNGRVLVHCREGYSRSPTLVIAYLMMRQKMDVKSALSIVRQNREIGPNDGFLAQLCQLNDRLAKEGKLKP
The target in assay [7] is T3, Tyrosine-protein phosphatase non-receptor type 11 (Homo sapiens, UniProt Q06124).
T3 sequence (Q06124 whole entry): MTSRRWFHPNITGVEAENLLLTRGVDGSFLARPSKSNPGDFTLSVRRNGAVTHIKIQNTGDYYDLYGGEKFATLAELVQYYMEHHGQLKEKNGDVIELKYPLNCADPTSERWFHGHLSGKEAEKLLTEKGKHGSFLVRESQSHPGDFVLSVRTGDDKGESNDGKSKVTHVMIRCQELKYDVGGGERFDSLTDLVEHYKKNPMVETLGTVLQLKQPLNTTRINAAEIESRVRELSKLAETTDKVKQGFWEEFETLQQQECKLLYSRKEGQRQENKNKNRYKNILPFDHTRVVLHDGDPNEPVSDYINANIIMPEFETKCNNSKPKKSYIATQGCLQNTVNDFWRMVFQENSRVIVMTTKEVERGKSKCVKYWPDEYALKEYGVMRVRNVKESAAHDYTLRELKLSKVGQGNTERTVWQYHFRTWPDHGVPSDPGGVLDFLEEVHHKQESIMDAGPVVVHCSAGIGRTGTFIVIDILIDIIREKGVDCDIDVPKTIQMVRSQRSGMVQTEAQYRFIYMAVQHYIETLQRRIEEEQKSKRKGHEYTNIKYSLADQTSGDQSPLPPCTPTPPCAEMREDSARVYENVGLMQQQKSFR
In words: Inhibition of His-tagged SHP2 (unknown origin) expressed in Escherichia coli BL21 cells using para-nitrophenyl phosphate as substrate incubated for 5 to 10 mins by microplate reader based spectrophotometric analysis.

In assay [8] the target is T4, Tyrosine-protein phosphatase non-receptor type 12 (Homo sapiens, UniProt Q05209).
T4 sequence (Q05209 whole entry): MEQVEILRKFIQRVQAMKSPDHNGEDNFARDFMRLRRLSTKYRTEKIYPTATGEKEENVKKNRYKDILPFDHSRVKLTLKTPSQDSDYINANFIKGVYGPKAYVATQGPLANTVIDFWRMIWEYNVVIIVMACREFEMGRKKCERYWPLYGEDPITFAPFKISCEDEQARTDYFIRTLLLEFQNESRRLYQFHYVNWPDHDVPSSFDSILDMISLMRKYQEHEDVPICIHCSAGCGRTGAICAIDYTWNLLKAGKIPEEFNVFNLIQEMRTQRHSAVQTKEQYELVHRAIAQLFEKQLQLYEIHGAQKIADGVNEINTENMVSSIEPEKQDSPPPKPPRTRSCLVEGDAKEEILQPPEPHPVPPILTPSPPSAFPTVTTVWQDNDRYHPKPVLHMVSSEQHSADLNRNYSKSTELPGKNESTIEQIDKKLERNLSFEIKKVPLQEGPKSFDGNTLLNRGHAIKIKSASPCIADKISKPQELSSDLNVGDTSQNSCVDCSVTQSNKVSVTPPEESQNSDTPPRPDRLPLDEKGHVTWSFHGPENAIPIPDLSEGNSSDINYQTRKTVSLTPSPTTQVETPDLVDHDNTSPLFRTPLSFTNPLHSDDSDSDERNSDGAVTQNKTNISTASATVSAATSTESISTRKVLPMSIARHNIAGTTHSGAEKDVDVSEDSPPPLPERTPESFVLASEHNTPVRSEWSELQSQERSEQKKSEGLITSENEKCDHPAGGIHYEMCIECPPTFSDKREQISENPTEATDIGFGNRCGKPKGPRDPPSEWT
In words: Inhibition of His-tagged PTP-PEST (unknown origin) expressed in Escherichia coli BL21 cells using para-nitrophenyl phosphate as substrate incubated for 5 to 10 mins by microplate reader based spectrophotometric analysis.

pIC50: −log10 of the molar value.

For `Cc1c(Br)cc(NC(=O)C(c2ccccc2)S(=O)(=O)O)cc1Br` (stereo not given), the pIC50 in assay [1], in assay [2], in assay [3], in assay [4], in assay [5] and in assay [6] was less than 3.70 throughout. Besides, the pIC50 – broadly, −log10 of the IC50, conventionally taken in molar units – in assay [7] was less than 3.70.

With `O=C(Nc1cc(C(F)(F)F)cc(C(F)(F)F)c1)C(c1ccccc1)S(=O)(=O)O` (stereo not given), the pIC50 in assay [1] is less than 3.70; in assay [2], less than 3.70; in assay [3], less than 3.70; in assay [8], 4.17; in assay [4], less than 3.70; in assay [5], less than 3.70. In addition, the pIC50 in assay [6] and in assay [7] was less than 3.70 in each case.

As for `O=C(Nc1nc2ccc([N+](=O)[O-])cc2s1)C(c1ccccc1)S(=O)(=O)O` (stereo not given), the pIC50 in assay [1], in assay [2], in assay [3], in assay [8], in assay [4] and in assay [5] was less than 4.00 throughout. Besides, the pIC50 in assay [6] and in assay [7] was less than 4.00 throughout.

Take `O=C(Nc1ccc(-n2ccnc2)cc1)C(c1ccccc1)S(=O)(=O)O` (stereo not given): the pIC50 in assay [1], in assay [2], in assay [3], in assay [8], in assay [4] and in assay [5] was less than 4.00 throughout. In addition, the pIC50 in assay [6] and in assay [7] was less than 4.00 throughout.

In the case of `O=C(Nc1ccc(OCc2ccccc2)c(Cl)c1)C(c1ccccc1)S(=O)(=O)O` (stereo not given), the pIC50 in assay [1], in assay [2], in assay [3] and in assay [4] was less than 3.70 throughout.
